According to patent US20240254547A1, “HIGHLY ACCURATE […]” (KAO CORPORATION, priority 2018, published 2024):

How the values were obtained:
[1] = system: Genomic DNA from TA100 strain of Salmonella typhimurium (S. typhimurium) LT-2; assay: Genomic mutation analysis of mutagen-exposed TA100 strain by sequencing with consensus read sequences considering complementary strands; type: cell-based; settings: ENU group
Protocol: Exposure of cells to ENU was performed in accordance with the pre-incubation method of the Ames test (K. Mortelmans et al. Mutat. Res.—Fundam. Mol. Mech. Mutagen. 455:29-60, 2000). TA100 strain was seeded in 2 mL of Nutrient Broth No. 2 (produced by Oxoid Limited), and subjected to shaking culture at 37° C. and 180 rpm for 4 hours to afford pre-culture solution with an O.D.660 value of 1.0 or higher. ENU (produced by Sigma-Aldrich Co. LLC.) was diluted with dimethylsulfoxide (DMSO; produced by Wako Pure Chemical Industries, Ltd.). Into test tubes, 100 μL of the ENU solution, 500 μL of 0.1 M phosphate buffer, and 100 μL of the pre-culture solution were added (amount of ENU: 62.5, 125, 250, 500, and 1,000 μg/tube), and the resultants were subjected to shaking culture at 100 rpm in a water bath at 37° C. for 20 minutes (ENU group). For a control group, 100 μL of solvent (DMSO) was added instead of the ENU solution. After shaking culture for 20 minutes, the test tubes each containing a culture solution were taken out of the water bath, and 50 μL of each culture solution was added to 2 mL of Nutrient Broth solution aliquoted in advance, and the resultant was further cultured in an incubator at 37° C. and 180 rpm for 14 hours, from which the bacterial suspensions were then collected and centrifuged at 7,500 rpm for 5 minutes, and the supernatants were removed to collect the bacterial cells.
From the bacterial cells obtained in 1) (control group and ENU group), total DNA was collected by using a DNeasy Blood & Tissue Kit (produced by QIAGEN) in accordance with the recommended protocol. The double-stranded DNA concentration of each DNA sample obtained was measured by using a Qubit3.0 Fluorometer (produced by Thermo Fisher Scientific) with a Qubit™ dsDNA BR Assay Kit attached thereto.
From each DNA sample (control group and ENU group) after being subjected to concentration measurement in 2), a plurality of samples each of which was to give 100 ng of DNA were prepared, and each sample was fragmented into pieces having a length of approximately 350 bp on average by using a DNA Shearing System ME220 (produced by Covaris Inc.) in accordance with the recommended protocol. The fragmented DNA obtained was subjected to library preparation by using a TruSeq Nano DNA Library Prep Kit (produced by Illumina, Inc., hereinafter abbreviated as TruSeq) in accordance with the recommended protocol.
In library preparation, the DNA fragments obtained were each labeled with adapter sequences each including a label sequence at a terminal, as described in Example 1. The resultant was subjected to PCR under different conditions listed in Table 1 to prepare libraries for sequencing, thus preparing labeled libraries for sequencing with different conditions. Adapter sequences attached to the TruSeq from Illumina, Inc. were used. […] Thus, one of two adapters was bound to each fragment in each library. […] Each of the resulting ligation reaction solutions was purified in accordance with the recommended protocol, and then subjected to concentration measurement for ligation products by using a High Sensitivity D5000 Kit in an Agilent 4200 TapeStation (produced by Agilent Technologies). […] The mixed solution obtained was subjected to purification through PCR in accordance with the recommended protocol. To adjust difference in amount of input DNA in PCR, each sample was amplified through PCR cycles the number of which is shown in Table 1 to adjust the amount of DNA in the library.
Each of the libraries prepared in 3) was subjected to sequencing by using a HiSeq 2500 (produced by Illumina, Inc.), where the read length was set to 2*125 bp for Library Nos. 1 to 8 shown in Table 1, and to 2*100 bp for Library Nos. 9 to 14. Sequencing data of approximately 10 Gbp were acquired on average per library.
Raw read sequences acquired through sequencing were edited and subjected to mutation analysis in accordance with the analysis flow illustrated above in Schematic Diagram 4. […]

[2] = system: gpt gene; assay: gpt-assay, gene mutation frequency (OECD TG488); type: in vivo, mouse (C57BL/6JJmsSlc-Tg (gpt delta)); settings: bone marrow
Protocol: Male TG mice which were 7 to 9 weeks old at initiation of administration were used. ENU (produced by Toronto Research Chemicals, Inc.) was dissolved in saline to a concentration of 15.0 mg/mL. By using a plastic syringe and a 25 G injection needle, […] was intraperitoneally administered to the mice once per day (ENU 150 mg/kg/day) for 5 days (ENU group). Saline was administered to a control group. Seven days after the final administration, the animals were each euthanized to resect the femur, and genomic DNA was extracted from the bone marrow by using a REcoverEase DNA Isolation Kit (produced by Agilent Technologies) in accordance with the recommended protocol. The double-stranded DNA concentration of the resulting DNA was measured by using a Qubit3.0 Fluorometer (produced by Thermo Fisher Scientific) with a Qubit™ dsDNA BR Assay Kit attached thereto.
DNA was extracted from the bone marrow of each of the mice obtained in 1) by using phenol/chloroform. For the extract DNA, gene mutation frequency was calculated by using the gpt gene introduced into each TG mouse in accordance with OECD Guidelines for the Testing of Chemicals 488 (OECD TG488) (gpt-assay). […] From the number of colonies formed on the selective medium (mutant colonies) and the number of colonies formed on the medium for titer determination (total colonies), mutation frequency (*10^−6) was calculated. […]

CCN(N=O)C(N)=O [ENU, ethylnitrosourea]
GC to AT mutation frequency ([1]; 10 Gbp sequencing data, Library No. 1, PCR input DNA 20000 amol): 10.48 /10^5 bp | GC to AT mutation frequency ([1]; 10 Gbp sequencing data, Library No. 4, PCR input DNA 2500 amol): 37.70 /10^5 bp | GC to AT mutation frequency ([1]; 10 Gbp sequencing data, Library No. 5, PCR input DNA 1250 amol): 46.50 /10^5 bp | GC to AT mutation frequency ([1]; 10 Gbp sequencing data, Library No. 6, PCR input DNA 625 amol): 55.30 /10^5 bp | GC to AT mutation frequency ([1]; 10 Gbp sequencing data, Library No. 7, PCR input DNA 313 amol): 56.57 /10^5 bp | GC to AT mutation frequency ([1]; 10 Gbp sequencing data, Library No. 8, PCR input DNA 156 amol): 60.42 /10^5 bp | GC to AT mutation frequency ([1]; 10 Gbp sequencing data, Library No. 9, PCR input DNA 156 amol): 61.01 /10^5 bp | GC to AT mutation frequency ([1]; 10 Gbp sequencing data, Library No. 10, PCR input DNA 78 amol): 63.62 /10^5 bp | GC to AT mutation frequency ([1]; 10 Gbp sequencing data, Library No. 11, PCR input DNA 39 amol): 63.38 /10^5 bp | GC to AT mutation frequency ([1]; 10 Gbp sequencing data, Library No. 12, PCR input DNA 20 amol): 63.89 /10^5 bp | GC to AT mutation frequency ([1]; 10 Gbp sequencing data, Library No. 13, PCR input DNA 10 amol): 63.35 /10^5 bp | GC to AT mutation frequency ([1]; 10 Gbp sequencing data, Library No. 14, PCR input DNA 5 amol): 60.05 /10^5 bp | Frequency of GC→AT mutation compared with the other mutation patterns ([1]; 10 Gbp sequencing data, each library): highest | Relative mutation frequency to 20 amol (GC to AT) ([1]; Library No. 1, PCR input DNA 20000 amol): 16.41 | Relative mutation frequency to 20 amol (GC to AT) ([1]; Library No. 4, PCR input DNA 2500 amol): 59.01 | Relative mutation frequency to 20 amol (GC to AT) ([1]; Library No. 5, PCR input DNA 1250 amol): 72.79 | Relative mutation frequency to 20 amol (GC to AT) ([1]; Library No. 6, PCR input DNA 625 amol): 86.56 | Relative mutation frequency to 20 amol (GC to AT) ([1]; Library No. 7, PCR input DNA 313 amol): 88.55 | Relative mutation frequency to 20 amol (GC to AT) ([1]; Library No. 8, PCR input DNA 156 amol): 94.57 | Relative mutation frequency to 20 amol (GC to AT) ([1]; Library No. 9, PCR input DNA 156 amol): 95.50 | Relative mutation frequency to 20 amol (GC to AT) ([1]; Library No. 10, PCR input DNA 78 amol): 99.59 | Relative mutation frequency to 20 amol (GC to AT) ([1]; Library No. 11, PCR input DNA 39 amol): 99.20 | Relative mutation frequency to 20 amol (GC to AT) ([1]; Library No. 12, PCR input DNA 20 amol (reference)): 100.00 | Relative mutation frequency to 20 amol (GC to AT) ([1]; Library No. 13, PCR input DNA 10 amol): 99.16 | Relative mutation frequency to 20 amol (GC to AT) ([1]; Library No. 14, PCR input DNA 5 amol): 94.00 | Mean Mutant Frequency (gpt-assay) ([2]; ENU 150 mg/kg/day intraperitoneally for 5 days, n=4): 126.33 *10^−6 | Gene mutation frequency (gpt-assay) versus control group ([2]; ENU 150 mg/kg/day): Significant increase
